# Data reported in PubChem BioAssay AID330 (DTP/NCI, 2004).
# “And” between values parts separate entries of the source, which are not always exact repeats. Equal values may be shown once. Toxic doses and inconclusive results are not listed.
# Test system: P388 leukemia ip, CD2F1 mice, survival T/C
# Experiment: NCI In Vivo Anticancer Drug Screen. Data for tumor model P388 Leukemia (intraperitoneal) in CD2F1 (CDF1) mice
# Conditions: endpoint: median survival time, higher = longer survival
# How it was run: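 Mice carrying the transplanted tumor received test compound or vehicle. Survival was recorded in each group, and the value is the treated-group measurement divided by that of the vehicle-treated control group.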
# [1] = dose: 100.0 mg/kg/injection, schedule: Q04DX002 (ip), vehicle: saline with Tween-80
# [2] = dose: 200.0 mg/kg/injection, schedule: Q04DX002 (ip), vehicle: saline with Tween-80
smiles,measurement,setting,value
COc1cc(C[C@H]2c3cc(OC)c(OC)cc3CCN2C)c(Oc2cc3c(cc2OC)-c2c(OC)c(OC)cc4c2[C@H](C3)N(C)CC4)cc1OC,T/C,"dose: 2.5 mg/kg/injection, schedule: Q03HX016 (ip), vehicle: saline",90 % of control
same,T/C,"dose: 2.5 mg/kg/injection, schedule: Q03HX024 (ip), vehicle: saline",95 % of control
same,T/C,"dose: 5.0 mg/kg/injection, schedule: Q03HX008 (ip), vehicle: saline",91 % of control
same,T/C,"dose: 5.0 mg/kg/injection, schedule: Q03HX016 (ip), vehicle: saline",100 % of control
same,T/C,"dose: 5.0 mg/kg/injection, schedule: Q03HX024 (ip), vehicle: saline",95 % of control
same,T/C,"dose: 6.25 mg/kg/injection, schedule: Q01DX009 (ip), vehicle: saline",90 % of control
same,T/C,"dose: 10.0 mg/kg/injection, schedule: Q01DX009 (ip), vehicle: distilled water + Tween-80",96 % of control
same,T/C,"dose: 10.0 mg/kg/injection, schedule: Q03HX008 (ip), vehicle: saline",95 % of control
same,T/C,"dose: 10.0 mg/kg/injection, schedule: Q03HX016 (ip), vehicle: saline",100 % of control
same,T/C,"dose: 10.0 mg/kg/injection, schedule: Q03HX024 (ip), vehicle: saline",95 % of control
same,T/C,"dose: 12.5 mg/kg/injection, schedule: Q01DX009 (ip), vehicle: saline",104 % of control
same,T/C,"dose: 12.5 mg/kg/injection, schedule: Q01DX009 (oral), vehicle: saline",100 % of control
same,T/C,"dose: 20.0 mg/kg/injection, schedule: Q01DX009 (ip), vehicle: distilled water + Tween-80",92 % of control
same,T/C,"dose: 20.0 mg/kg/injection, schedule: Q03HX008 (ip), vehicle: saline",100 % of control
same,T/C,"dose: 20.0 mg/kg/injection, schedule: Q03HX016 (ip), vehicle: saline",100 % of control
same,T/C,"dose: 20.0 mg/kg/injection, schedule: Q03HX024 (ip), vehicle: saline",100 % of control
same,T/C,"dose: 25.0 mg/kg/injection, schedule: Q01DX009 (ip), vehicle: saline",109 % of control
same,T/C,"dose: 25.0 mg/kg/injection, schedule: Q01DX009 (oral), vehicle: saline",100 % of control
same,T/C,"dose: 25.0 mg/kg/injection, schedule: Q04DX003 (ip), vehicle: saline",100 % of control
same,T/C,"dose: 25.0 mg/kg/injection, schedule: Q08DX002 (ip), vehicle: saline",100 % of control
same,T/C,"dose: 40.0 mg/kg/injection, schedule: Q01DX009 (ip), vehicle: distilled water + Tween-80",92 % of control
same,T/C,"dose: 40.0 mg/kg/injection, schedule: Q03HX008 (ip), vehicle: saline",100 % of control
same,T/C,"dose: 40.0 mg/kg/injection, schedule: Q03HX016 (ip), vehicle: saline",109 % of control
same,T/C,"dose: 40.0 mg/kg/injection, schedule: Q03HX024 (ip), vehicle: saline",95 % of control
same,T/C,"dose: 50.0 mg/kg/injection, schedule: Q01DX001 (ip), vehicle: saline",91 % of control
same,T/C,"dose: 50.0 mg/kg/injection, schedule: Q01DX009 (ip), vehicle: saline",104 % of control
same,T/C,"dose: 50.0 mg/kg/injection, schedule: Q01DX009 (oral), vehicle: saline",100 % of control
same,T/C,"dose: 50.0 mg/kg/injection, schedule: Q04DX003 (ip), vehicle: saline",100 % of control
same,T/C,"dose: 50.0 mg/kg/injection, schedule: Q08DX002 (ip), vehicle: saline",100 % of control
same,T/C,"dose: 80.0 mg/kg/injection, schedule: Q01DX009 (ip), vehicle: distilled water + Tween-80",101 % of control
same,T/C,"dose: 80.0 mg/kg/injection, schedule: Q03HX008 (ip), vehicle: saline",100 % of control
same,T/C,"dose: 100.0 mg/kg/injection, schedule: Q01DX001 (ip), vehicle: saline",91 % of control
same,T/C,"dose: 100.0 mg/kg/injection, schedule: Q01DX001 (oral), vehicle: saline",104 % of control
same,T/C,"dose: 100.0 mg/kg/injection, schedule: Q01DX009 (ip), vehicle: saline",100 % of control
same,T/C,"dose: 100.0 mg/kg/injection, schedule: Q01DX009 (oral), vehicle: saline",100 % of control
same,T/C,"dose: 100.0 mg/kg/injection, schedule: Q04DX003 (ip), vehicle: saline",109 % of control
same,T/C,"dose: 100.0 mg/kg/injection, schedule: Q08DX002 (ip), vehicle: saline",100 % of control
same,T/C,"dose: 200.0 mg/kg/injection, schedule: Q01DX001 (ip), vehicle: saline",91 % of control
same,T/C,"dose: 200.0 mg/kg/injection, schedule: Q01DX001 (oral), vehicle: saline",95 % of control
same,T/C,"dose: 200.0 mg/kg/injection, schedule: Q01DX009 (oral), vehicle: saline",95 % of control
same,T/C,"dose: 200.0 mg/kg/injection, schedule: Q04DX003 (ip), vehicle: saline",109 % of control
same,T/C,"dose: 200.0 mg/kg/injection, schedule: Q08DX002 (ip), vehicle: saline",100 % of control
same,T/C,"dose: 400.0 mg/kg/injection, schedule: Q01DX001 (ip), vehicle: saline",91 % of control
same,T/C,"dose: 400.0 mg/kg/injection, schedule: Q01DX001 (oral), vehicle: saline",95 % of control
same,T/C,"dose: 400.0 mg/kg/injection, schedule: Q08DX002 (ip), vehicle: saline",100 % of control
same,T/C,"dose: 800.0 mg/kg/injection, schedule: Q01DX001 (ip), vehicle: saline",100 % of control
same,T/C,"dose: 800.0 mg/kg/injection, schedule: Q01DX001 (oral), vehicle: saline",95 % of control
same,T/C,"dose: 1600.0 mg/kg/injection, schedule: Q01DX001 (oral), vehicle: saline",104 % of control
Clc1c2c(c(Cl)c3c1=Nc1ncccc1O3)=Nc1ncccc1O2,T/C,"dose: 50.0 mg/kg/injection, schedule: Q01DX009 (ip), vehicle: saline with Tween-80",100 % of control
same,T/C,"dose: 100.0 mg/kg/injection, schedule: Q01DX009 (ip), vehicle: saline with Tween-80",96 % of control
same,T/C,"dose: 200.0 mg/kg/injection, schedule: Q01DX009 (ip), vehicle: saline with Tween-80",99 % of control
OCCC(N1CCOCC1)C(O)(c1ccccc1)c1ccccc1 (stereo not given),T/C,"dose: 60.0 mg/kg/injection, schedule: Q01DX005 (ip), vehicle: saline with Tween-80",93 % of control
same,T/C,"dose: 120.0 mg/kg/injection, schedule: Q01DX005 (ip), vehicle: saline with Tween-80",93 % of control
same,T/C,"dose: 240.0 mg/kg/injection, schedule: Q01DX005 (ip), vehicle: saline with Tween-80",97 % of control
CNC(=O)O/N=C(\SC)C(=O)N(C)C,T/C,"dose: 0.87 mg/kg/injection, schedule: Q01DX005 (ip), vehicle: saline",102 % of control
same,T/C,"dose: 1.75 mg/kg/injection, schedule: Q01DX005 (ip), vehicle: saline",100 % of control
CS/C(N)=N/NC(=O)CCC(=O)Nc1cc(C)ccc1C,T/C,[1],102 % of control
same,T/C,[2],101 % of control
same,T/C,"dose: 400.0 mg/kg/injection, schedule: Q04DX002 (ip), vehicle: saline with Tween-80",90 % of control
COc1cccc2c1C(=N)c1c(O)c3c(c(O)c1C2=O)C[C@@](O)(C(=O)CO)C[C@@H]3OC1CC(N)C(O)C(C)O1 (stereo not given in full),T/C,"dose: 1.56 mg/kg/injection, schedule: Q04DX003 (ip), vehicle: water",115 % of control
same,T/C,"dose: 3.13 mg/kg/injection, schedule: Q04DX003 (ip), vehicle: water",118 % of control
same,T/C,"dose: 6.25 mg/kg/injection, schedule: Q04DX003 (ip), vehicle: water",122 % of control
same,T/C,"dose: 25.0 mg/kg/injection, schedule: Q04DX003 (ip), vehicle: water",155 % of control and 163 % of control
same,T/C,"dose: 50.0 mg/kg/injection, schedule: Q04DX003 (ip), vehicle: water",173 % of control and 188 % of control
same,T/C,"dose: 100.0 mg/kg/injection, schedule: Q04DX003 (ip), vehicle: water",194 % of control and 217 % of control
same,T/C,"dose: 150.0 mg/kg/injection, schedule: Q04DX003 (ip), vehicle: water",165 % of control
CCOC(=O)Nc1cc(Cl)c2[nH]cnc2n1,T/C,"dose: 50.0 mg/kg/injection, schedule: Q01DX005 (ip), vehicle: Klucel (hydroxypropylcellulose) (HPC)",97 % of control
same,T/C,"dose: 100.0 mg/kg/injection, schedule: Q01DX005 (ip), vehicle: Klucel (hydroxypropylcellulose) (HPC)",101 % of control
same,T/C,"dose: 200.0 mg/kg/injection, schedule: Q01DX005 (ip), vehicle: Klucel (hydroxypropylcellulose) (HPC)",108 % of control
CNC(=O)N(C)c1nc(-c2ccccc2)c(-c2ccccc2)n1Cc1ccc(Cl)cc1,T/C,"dose: 50.0 mg/kg/injection, schedule: Q04DX002 (ip), vehicle: saline with Tween-80",94 % of control
same,T/C,[1],99 % of control
same,T/C,[2],92 % of control
CC(=O)c1ccccc1N=O,T/C,"dose: 50.0 mg/kg/injection, schedule: Q01DX001 (ip), vehicle: other",102 % of control
same,T/C,"dose: 100.0 mg/kg/injection, schedule: Q01DX001 (ip), vehicle: other",101 % of control and 107 % of control
same,T/C,"dose: 200.0 mg/kg/injection, schedule: Q01DX001 (ip), vehicle: other",100 % of control
same,T/C,"dose: 400.0 mg/kg/injection, schedule: Q01DX001 (ip), vehicle: other",102 % of control
CCCCCCCCCCCC(C)NCc1ccccc1 (stereo not given),T/C,"dose: 6.25 mg/kg/injection, schedule: Q01DX009 (ip), vehicle: Klucel (hydroxypropylcellulose) (HPC)",103 % of control
same,T/C,"dose: 12.5 mg/kg/injection, schedule: Q01DX009 (ip), vehicle: Klucel (hydroxypropylcellulose) (HPC)",112 % of control
same,T/C,"dose: 25.0 mg/kg/injection, schedule: Q01DX009 (ip), vehicle: Klucel (hydroxypropylcellulose) (HPC)",99 % of control
same,T/C,"dose: 50.0 mg/kg/injection, schedule: Q01DX009 (ip), vehicle: Klucel (hydroxypropylcellulose) (HPC)",105 % of control
